Columns and labels:
H9c2 cells [1] = assay: Dox-induced cardiotoxicity model in H9c2 cells, MTT cell viability; format: cell-based
Experimental: H9c2 cardiomyocytes were cultured in high-glucose DMEM supplemented with 10% FBS and 1% penicillin/streptomycin under a 5% CO2 atmosphere at 37 °C. Cells were seeded at 5 × 10^4 cells/mL in 96-well plates and treated with 1 μM Dox for 24 h. After Dox treatment, cell viability was quantified via MTT assay; 3-(4,5-dimethythiazol-2-yl)-2,5-diphenyltetrazolium bromide (MTT, 5 mg/mL) was applied for 4 h, followed by DMSO dissolution of formazan crystals. Additionally, cells were pretreated with 10 μM SKLB-11A for 24 h prior to 1 μM Dox exposure, and viability was similarly assessed using MTT.

hSirt3 = biological target: T1, hSirt3 (Homo sapiens, UniProt Q9NTG7); assay: Mass spectrometry-based deacetylation assay, substrate […]-Ac; format: biochemical; settings: substrate GELLEAIK-Ac; SKLB-11A 100 μM
T1 sequence (Q9NTG7 1-399): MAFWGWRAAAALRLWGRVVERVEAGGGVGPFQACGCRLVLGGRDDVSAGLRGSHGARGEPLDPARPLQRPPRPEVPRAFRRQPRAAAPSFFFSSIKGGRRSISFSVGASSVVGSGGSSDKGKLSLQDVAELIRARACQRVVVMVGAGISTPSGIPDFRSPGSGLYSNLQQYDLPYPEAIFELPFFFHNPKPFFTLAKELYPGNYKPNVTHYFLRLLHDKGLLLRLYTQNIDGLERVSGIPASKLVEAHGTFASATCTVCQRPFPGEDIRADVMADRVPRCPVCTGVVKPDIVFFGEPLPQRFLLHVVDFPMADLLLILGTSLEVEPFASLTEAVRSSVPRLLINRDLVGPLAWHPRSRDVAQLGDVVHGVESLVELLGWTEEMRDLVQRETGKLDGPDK

SIRT3 [2] = biological target: T2, SIRT3 (Homo sapiens, UniProt Q9NTG7); assay: SPR binding to immobilized SIRT3; settings: 25 °C, PBST pH 7.4
T2 construct: purchased Enzo Life Sciences BML-AK557-0001
T2 sequence (Q9NTG7 1-399): T1 sequence (Q9NTG7 1-399)
Experimental: The affinity of SKLB-11A for SIRT1, SIRT2, SIRT3, SIRT5, and SIRT6 was determined using a Reichert 4SPR system (Reichert Technologies, Depew, NY, USA). Proteins at 200 μg/mL were immobilized on a dextran-coated sensor chip (13206066) until reaching ≥12,000 response units (RUs). A dual-flow channel setup was used, reserving one channel for blank controls. SKLB-11A was introduced at varying concentrations for binding and subsequent dissociation kinetic analysis. Data acquisition was at 25 °C utilizing a PBST running buffer (pH 7.4). The equilibrium dissociation constant (K d) was computed from steady-state affinity measurements using TraceDrawer software.

SIRT2 = biological target: T3, SIRT2 (Homo sapiens, UniProt Q8IXJ6); assay: Coupled enzymatic assay, acetylated α-tubulin-K25 substrate; format: biochemical; settings: 100 μM
T3 sequence (Q8IXJ6 1-389): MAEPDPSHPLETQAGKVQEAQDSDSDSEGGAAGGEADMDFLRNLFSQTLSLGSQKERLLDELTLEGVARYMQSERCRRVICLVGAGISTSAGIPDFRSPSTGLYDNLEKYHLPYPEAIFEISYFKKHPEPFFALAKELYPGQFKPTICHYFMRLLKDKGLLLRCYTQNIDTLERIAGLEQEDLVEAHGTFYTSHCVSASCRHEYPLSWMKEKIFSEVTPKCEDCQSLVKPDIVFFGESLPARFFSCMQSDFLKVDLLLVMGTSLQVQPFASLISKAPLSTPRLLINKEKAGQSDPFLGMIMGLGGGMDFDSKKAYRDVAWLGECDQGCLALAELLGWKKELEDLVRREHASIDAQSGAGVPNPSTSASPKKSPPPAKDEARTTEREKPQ
Text: Additionally, we used surface plasmon resonance (SPR) to measure the binding of SKLB-11A to immobilized SIRT3. […] We next evaluated the selectivity of SKLB-11A for different SIRT family members. […] We next examined the functional specificity of SKLB-11A using coupled enzymatic assays with isoform-specific, physiologically relevant substrates: acetylated p53-K381 for SIRT1, acetylated α-tubulin-K25 for SIRT2, acetylated MnSOD-K122 for SIRT3, and succinylated CPS1-K537 for SIRT5 (Supplementary Table S3). […] Using Schrödinger molecular docking simulations, we assessed the binding interactions of SKLB-11A with SIRT isoforms.

SIRT3 [3] = biological target: T4, SIRT3 (Rattus norvegicus, UniProt A0A8I5XWT5); assay: CETSA of SIRT3 in H9c2 cells; format: cell-based; settings: 10 μM, 6 h
T4 construct: endogenous in cells; host or cells: H9c2
T4 sequence (A0A8I5XWT5 1-347): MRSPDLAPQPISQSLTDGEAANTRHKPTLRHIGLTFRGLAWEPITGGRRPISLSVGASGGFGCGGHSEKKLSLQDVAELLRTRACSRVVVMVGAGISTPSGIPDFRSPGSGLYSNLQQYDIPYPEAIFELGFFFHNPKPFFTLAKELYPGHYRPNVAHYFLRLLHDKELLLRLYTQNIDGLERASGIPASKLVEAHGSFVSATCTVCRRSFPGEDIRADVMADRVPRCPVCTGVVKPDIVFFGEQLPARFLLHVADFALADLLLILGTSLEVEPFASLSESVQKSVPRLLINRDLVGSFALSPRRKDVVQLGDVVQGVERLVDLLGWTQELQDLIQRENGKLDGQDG
Experimental: The Cellular Thermal Shift Assay (CETSA) leverages the principle of thermal stabilization of proteins upon ligand binding. H9c2 cells were seeded on 100 mm culture dishes and allowed to adhere for 12 h. Following attachment, cells were treated with SKLB-11A (10 μM) for 6 h, after which they were enzymatically detached using trypsin and harvested. The cell suspension was partitioned into seven equal aliquots, which were then exposed to a range of thermal conditions (37, 41, 45, 49, 53, 57, and 61 °C) for 3 min each. Post-thermal treatment, rapid freezing in liquid nitrogen was performed thrice to ensure cell lysis. The lysates were then subjected to centrifugation at 12,000 rpm for 20 min, and the levels of SIRT3 were analyzed via Western blotting.

H9c2 cells [4] = assay: Intracellular ROS (DCFH-DA) and mitochondrial membrane potential (JC-1) in Dox-treated H9c2 cells; format: cell-based
Experimental: Mitochondrial membrane potential and reactive oxygen species (ROS) levels within cells were assessed using the JC-1 Mitochondrial Membrane Potential Assay Kit (Beyotime, Beijing, China) and the DCFH-DA probe (Beyotime, Shanghai, China), respectively, following the manufacturer’s guidelines. , For mitochondrial membrane potential quantification, cells were treated with JC-1 solution and incubated for 20 min at 37 °C in the dark. ROS quantification involved a 25 min incubation at 37 °C in the dark with DCFH-DA solution. Postincubation, cells underwent three gentle washes with prewarmed buffer. Visualization was achieved using a Nikon (Ni-E) fluorescence microscope and quantified by flow cytometry (BD FACS Calibur).

## COC(=O)c1c(N)n(Cc2ccc(F)cc2)c2nc3ccccc3nc12 [SKLB-11A, Methyl 2-amino-1-(4-fluorobenzyl)-1H-pyrrolo[2,3-b]quinoxaline-3-carboxylate]
H9c2 cells [1]; Dox-treated H9c2, MTT
  protective effects on H9c2 cells compared to the positive control compounds: slightly better protective effects
H9c2 cells [1]; Rattus norvegicus, H9c2, 10 µM pretreatment 24 h, then 1 µM Dox 24 h, MTT, Model (Dox) = Dox alone, read-out: Cardiomyocyte survival rate at 10 uM (%)
  viability at 10 µM: 78.88 ± 0.65%
H9c2 cells [1]; SIRT3 knockdown by shRNA, cell viability
  cardioprotective effects in H9c2 cells with reduced SIRT3 expression: significantly diminished
hSirt3
  catalytic efficiency of SIRT3 deacetylation (MS assay): significantly increased the catalytic efficiency
SIRT3 [2]
  Kd: 4.7 µM
SIRT2
  effect on basal SIRT2 deacetylation activity: no statistically significant effects
SIRT3 [3]
  thermal stability of SIRT3 (CETSA): effectively binds to SIRT3
H9c2 cells [4]; JC-1
  Dox-induced dissipation of mitochondrial membrane potential (MMP): notably preserved
H9c2 cells [4]; pretreatment, DCFH-DA
  Dox-induced increase of ROS levels: effectively suppressed this increase
